# Data as given in paper PMC8621172, “Manipulating Estrogenic/Anti-Estrogenic Activity of Triphenylethylenes towards Development of Novel Anti-Neoplastic SERMs” (International Journal of Molecular Sciences, 2021).
# Where “and” joins values, the source holds several entries; their conditions need not be identical. Equal entries are not always repeated.
# How the values were obtained:
# 60 NCI tumor cell lines = test: NCI-60 single-dose growth inhibition screen (SRB); assay type: cell-based, human; conditions: for inhibition at 10 µM: Homo sapiens, mean over 60 NCI tumor cell lines
# Protocol: The anti-proliferative effects of the novel analogs were tested in vitro by the National Cancer Institute (NCI) on a panel of 60 human tumor cell lines at 10 µM. Compounds that elicited mean growth inhibition ≥50% were selected by the NCI for 5-dose testing.
# Compounds were submitted to the Developmental Therapeutics Program (DTP) of the National Cancer Institute (NCI). The program uses a panel of 60 human tumor cell lines representing nine tissue types, including leukemia, non-small cell lung cancer (NSCLC), melanoma, colon cancer, ovarian cancer, CNS cancer, renal cancer, prostate cancer, and breast cancer, to screen for potential new anti-cancer agents. […] Primary screening of synthesized compounds was performed by testing a single high dose of 10 µM in the full NCI-60 panel. The percent growth of treated cells relative to the no-drug control and relative to the time zero number of cells was measured, and a mean graph was provided. The percentage inhibition was then calculated by subtracting the values obtained from 100.
# All compounds were subjected to the NCI in vitro disease-oriented human cells screening panel assay. The human tumor cell lines of the cancer-screening panel are grown in RPMI 1640 medium containing 5% fetal bovine serum and 2 mM L-glutamine. For a typical screening experiment, cells are inoculated into 96-well microtiter plates in 100 μL at plating densities ranging from 5000 to 40,000 cells/well depending on the doubling time of individual cell lines. After cell inoculation, the microtiter plates are incubated at 37 °C, 5% CO2, 95% air, and 100% relative humidity for 24 h prior to the addition of experimental drugs. After 24 h, two plates of each cell line are fixed in situ with TCA to represent a measurement of the cell population for each cell line at the time of drug addition. Experimental drugs are solubilized in dimethyl sulfoxide at 400-fold the desired final maximum test concentration and stored frozen prior to use. At the time of drug addition, an aliquot of frozen concentrate is thawed and diluted to twice the desired final maximum test concentration with complete medium containing 50 μg/mL gentamicin. Additional four, 10-fold, or ½ log serial dilutions are made to provide a total of five drug concentrations plus control. Aliquots of 100 μL of these different drug dilutions are added to the appropriate microtiter wells already containing 100 μL of medium, resulting in the required final drug concentrations. Following drug addition, the plates are incubated for an additional 48 h at 37 °C, 5% CO2, 95% air, and 100% relative humidity. For adherent cells, the assay is terminated by the addition of cold TCA. Cells are fixed in situ by the gentle addition of 50 μL of cold 50% (w/v) TCA (final concentration, 10% TCA) and incubated for 60 min at 4 °C. The supernatant is discarded, and the plates are washed five times with tap water and air-dried. Sulforhodamine B (SRB) solution (100 μL) at 0.4% (w/v) in 1% acetic acid is added to each well, and plates are incubated for 10 min at room temperature. After staining, unbound dye is removed by washing five times with 1% acetic acid, and the plates are air-dried. Bound stain is subsequently solubilized with a 10 mM trizma base, and the absorbance is read on an automated plate reader at a wavelength of 515 nm. For suspension cells, the methodology is the same except that the assay is terminated by fixing settled cells at the bottom of the wells by gently adding 50 μL of 80% TCA (final concentration, 16% TCA). Compounds are screened at a dose of 10 µM, hits showing mean growth inhibition over 60 cell lines >50% are escalated for 5-dose screening assay.
# human ERα = molecular target: T1, human ERα (Homo sapiens, UniProt P03372); test: Yeast estrogen screen (YES) assay, agonistic activity (β-galactosidase reporter); assay type: cell-based; conditions: triplicates; for EC50: YES assay; for Estrogenic Activity (relative β-galactosidase activity): compounds at 1 µM, compared to DMSO (set as 1)
# T1 construct: host or cells: Saccharomyces cerevisiae
# T1 sequence (P03372 1-595): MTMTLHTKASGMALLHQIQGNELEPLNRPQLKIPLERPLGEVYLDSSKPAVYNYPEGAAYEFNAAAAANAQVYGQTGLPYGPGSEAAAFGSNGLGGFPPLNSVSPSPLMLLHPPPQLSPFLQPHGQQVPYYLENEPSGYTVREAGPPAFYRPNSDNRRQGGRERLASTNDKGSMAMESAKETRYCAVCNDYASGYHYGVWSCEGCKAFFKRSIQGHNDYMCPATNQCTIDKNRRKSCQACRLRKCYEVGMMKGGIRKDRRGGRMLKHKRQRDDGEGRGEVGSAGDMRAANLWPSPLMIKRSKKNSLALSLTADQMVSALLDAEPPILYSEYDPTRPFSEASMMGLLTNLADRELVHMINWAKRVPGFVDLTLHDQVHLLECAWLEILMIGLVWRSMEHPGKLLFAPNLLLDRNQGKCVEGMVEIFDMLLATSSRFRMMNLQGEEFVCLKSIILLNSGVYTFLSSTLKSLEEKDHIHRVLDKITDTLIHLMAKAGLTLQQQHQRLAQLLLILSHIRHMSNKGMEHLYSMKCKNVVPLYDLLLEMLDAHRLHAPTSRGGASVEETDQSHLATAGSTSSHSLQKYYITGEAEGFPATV
# Protocol: All synthesized compounds were tested for their relative activity in β-galactosidase in a yeast estrogen screen (YES) assay. Compounds were tested for their relative estrogenic/anti-estrogenic activities in comparison to positive and negative controls, respectively. YES assay is a gene reporter assay where the DNA sequence of human ERα is integrated into the yeast genome completed with an expression plasmid carrying estrogen response elements (ERE) in the promoter controlling the expression of the reporter gene lacZ (encoding the enzyme β-galactosidase). In the presence of estrogenic compounds, β-galactosidase is synthesized and secreted into the medium, where it converts the chromogenic substrate chlorophenol red-β-D-galactopyranoside (CRPG) from a yellow to a red product, whose absorbance is measured. […] Therefore, we decided to test the novel compounds in an organ-specific in vitro model using the human Ishikawa endometrial adenocarcinoma cell line.
# All synthesized compounds were tested for their relative β-galactosidase activity in a yeast estrogen screen (YES) assay at a concentration of 1 µM using DMSO as control (set as 1).
# The yeast estrogen receptor assay was supplied by Dr. J.P. Sumpter (Brunel University, Uxbridge, UK) and was used to determine the relative transactivation activity of the human ERα as formerly described. Briefly, Saccharomyces cerevisiae stably transfected with a human ERα and an estrogen-responsive element fused to the reporter gene lacZ encoding for β-galactosidase were treated with the test substances for about 48 h. The β-galactosidase enzymatic activity was measured in a colorimetric assay using a microplate photometer by hydrolysis of the substrate chlorophenol red β-D-galactopyranoside (Roche Diagnostics, Mannheim, Germany), which leads to the formation of chlorophenol red. This can be measured as an increased absorption at 540 nm. All compounds were diluted in DMSO. […] All compounds were tested in technical quadruplicates and biological triplicates. Statistical analysis was performed by analysis of variance (ANOVA) and Tukey’s post-hoc test with the significance level of p < 0.05.
Compound,EC50 (human ERα),Estrogenic Activity (relative β-galactosidase activity) (human ERα),inhibition at 10 µM (60 NCI tumor cell lines),"anti-proliferative activity (in words) (60 NCI tumor cell lines; 10 µM, NCI-60 panel and MCF-7)"
"COc1ccc(C(C)=C(c2ccc(Cl)cc2)c2ccc(OCCN3CCCCCC3)cc2)cc1F [Compound 19, E/Z-1-(2-{4-[1-(4-Chlorophenyl)-2-(3-fluoro-4-methoxyphenyl)-propenyl]-phenoxy}-ethyl)-azepane]",407 ± 86 nM,3.22 and 3.22 ± 1.22,60.8%,–
"COc1ccc(C(C)=C(c2ccc(Cl)cc2)c2ccc(OCCN(C)C)cc2)cc1F [Compound 20, E/Z-(2-{4-[1-(4-Chlorophenyl)-2-(3-fluoro-4-methoxyphenyl)-propenyl]-phenoxy}-ethyl)-dimethyl-amine]",–,2.40 ± 0.64,47%,–
"CCN(CC)CCOc1ccc(C(=C(C)c2ccc(OC)c(F)c2)c2ccc(Cl)cc2)cc1 [Compound 21, E/Z-(2-{4-[1-(4-Chlorophenyl)-2-(3-fluoro-4-methoxyphenyl)-propenyl]-phenoxy}-ethyl)-diethyl-amine]",735 ± 13 nM,2.40 ± 0.77,31.2%,–
"COc1cc(C(C)=C(c2ccc(Cl)cc2)c2ccc(OCCCN(C)C)cc2)ccc1F [Compound 22, E/Z-(3-{4-[1-(4-Chlorophenyl)-2-(4-fluoro-3-methoxyphenyl)-propenyl]-phenoxy}-propyl)-dimethyl-amine]",–,1.87 ± 0.74,18.6%,–
"COc1cc(C(C)=C(c2ccc(Cl)cc2)c2ccc(OCCN3CCCC3)cc2)ccc1F [Compound 23, E/Z-1-(2-{4-[1-(4-Chlorophenyl)-2-(4-fluoro-3-methoxyphenyl)-propenyl]-phenoxy}-ethyl)-pyrrolidine]",–,1.41 ± 1.01,46.9%,–
"COc1cc(C(C)=C(c2ccc(Cl)cc2)c2ccc(OCCN3CCCCC3)cc2)ccc1F [Compound 24, E/Z-1-(2-{4-[1-(4-Chlorophenyl)-2-(4-fluoro-3-methoxyphenyl)-propenyl]-phenoxy}-ethyl)-piperidine]",–,1.19 ± 0.20,29.2%,–
"COc1cc(C(C)=C(c2ccc(Cl)cc2)c2ccc(OCCN3CCOCC3)cc2)ccc1F [Compound 25, E/Z-4-(2-{4-[1-(4-Chlorophenyl)-2-(4-fluoro-3-methoxyphenyl)-propenyl]-phenoxy}-ethyl)-morpholine]",–,1.31 ± 0.30,12.8%,lacked anti-proliferative activity

# Further lines, with some results ahead:
EC50 (human ERα),Estrogenic Activity (relative β-galactosidase activity) (human ERα),Compound,inhibition at 10 µM (60 NCI tumor cell lines),"anti-proliferative activity (in words) (60 NCI tumor cell lines; 10 µM, NCI-60 panel and MCF-7)"
–,1.78 ± 0.64,"COc1cc(C(C)=C(c2ccc(Cl)cc2)c2ccc(OCCN3CCCCCC3)cc2)ccc1F [Compound 26, E/Z-1-(2-{4-[1-(4-Chlorophenyl)-2-(4-fluoro-3-methoxyphenyl)-propenyl]-phenoxy}-ethyl)-azepane]",28.3%,–
–,1.15 ± 0.17,"COc1cc(C(C)=C(c2ccc(Cl)cc2)c2ccc(OCCN(C)C)cc2)ccc1F [Compound 27, E/Z-(2-{4-[1-(4-Chlorophenyl)-2-(4-fluoro-3-methoxyphenyl)-propenyl]-phenoxy}-ethyl)-dimethyl-amine]",47.2%,–
–,1.37 ± 0.39,"CCN(CC)CCOc1ccc(C(=C(C)c2ccc(F)c(OC)c2)c2ccc(Cl)cc2)cc1 [Compound 28, E/Z-(2-{4-[1-(4-Chlorophenyl)-2-(4-fluoro-3-methoxyphenyl)-propenyl]-phenoxy}-ethyl)-diethyl-amine]",92.3%,–
